Data from publication PMC9692725, “Glutathione S-Transferase May Contribute to the Detoxification of (S)-(−)-Palasonin in Plutella xylostella (L.) via Direct Metabolism” (Insects, 2022).

Experiments:
[1] = target: T1, GSTs1 (Plutella xylostella, UniProt Q6F443); assay: CDNB-GSH conjugation, absorbance at […] nm; format: biochemical; settings: 1 mM GSH, 100 mM phosphate buffer, CDNB 0.05-1.6 mM
T1 construct: recombinant, pET-30a(+), E. coli BL21(DE3), Ni-NTA purified, about 25 kDa expected
T1 sequence (Q6F443 1-204): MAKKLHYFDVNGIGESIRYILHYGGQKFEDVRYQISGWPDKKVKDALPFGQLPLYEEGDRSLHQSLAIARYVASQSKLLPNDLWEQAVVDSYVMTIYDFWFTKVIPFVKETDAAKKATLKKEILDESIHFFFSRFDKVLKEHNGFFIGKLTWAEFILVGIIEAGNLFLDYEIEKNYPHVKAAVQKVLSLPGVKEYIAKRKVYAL

[2] = target: T2, GSTd3 (Plutella xylostella, UniProt D7URW9); assay: CDNB-GSH conjugation, absorbance at […] nm; format: biochemical; settings: 1 mM GSH, 100 mM phosphate buffer, CDNB 0.05-1.6 mM
T2 construct: gene PxGSTd; recombinant, pET-30a(+), E. coli BL21(DE3), Ni-NTA purified, about 25 kDa expected
T2 sequence (D7URW9 1-215): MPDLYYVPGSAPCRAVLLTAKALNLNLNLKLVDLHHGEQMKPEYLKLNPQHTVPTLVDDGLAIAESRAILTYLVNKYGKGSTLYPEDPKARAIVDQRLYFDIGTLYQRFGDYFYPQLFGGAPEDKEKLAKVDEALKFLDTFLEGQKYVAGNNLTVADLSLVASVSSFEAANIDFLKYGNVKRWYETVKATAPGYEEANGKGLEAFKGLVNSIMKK

[3] = target: T3, GSTd2 (Plutella xylostella, UniProt X5CJR6); assay: CDNB-GSH conjugation, absorbance at […] nm; format: biochemical; settings: 1 mM GSH, 100 mM phosphate buffer, CDNB 0.05-1.6 mM
T3 construct: recombinant, pET-30a(+), E. coli BL21(DE3), Ni-NTA purified, about 25 kDa expected
T3 sequence (X5CJR6 1-247): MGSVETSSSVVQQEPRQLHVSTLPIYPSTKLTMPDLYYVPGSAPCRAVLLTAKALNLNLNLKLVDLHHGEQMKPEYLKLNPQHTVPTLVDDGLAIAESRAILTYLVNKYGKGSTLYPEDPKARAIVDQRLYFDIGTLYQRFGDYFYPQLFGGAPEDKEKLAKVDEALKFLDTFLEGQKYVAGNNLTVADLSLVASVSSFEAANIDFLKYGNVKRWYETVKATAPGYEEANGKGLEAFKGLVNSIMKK

[4] = target: T4, GSTe5 (Plutella xylostella, UniProt X5CJR9); assay: CDNB-GSH conjugation, absorbance at […] nm; format: biochemical; settings: 1 mM GSH, 100 mM phosphate buffer, CDNB 0.05-1.6 mM
T4 construct: recombinant, pET-30a(+), E. coli BL21(DE3), Ni-NTA purified, about 25 kDa expected
T4 sequence (X5CJR9 1-232): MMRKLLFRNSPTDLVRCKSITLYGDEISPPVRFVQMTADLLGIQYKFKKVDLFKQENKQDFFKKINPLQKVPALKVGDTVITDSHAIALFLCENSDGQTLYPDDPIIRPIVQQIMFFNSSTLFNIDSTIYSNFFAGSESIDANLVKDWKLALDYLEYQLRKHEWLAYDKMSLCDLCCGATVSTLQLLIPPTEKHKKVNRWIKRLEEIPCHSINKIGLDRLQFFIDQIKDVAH

[5] = target: T5, GSTd1 (Plutella xylostella, UniProt A0A8S4F7H5); assay: CDNB-GSH conjugation, absorbance at […] nm; format: biochemical; settings: 1 mM GSH, 100 mM phosphate buffer, CDNB 0.05-1.6 mM
T5 construct: gene PLXY2_LOCUS7699; recombinant, pET-30a(+), E. coli BL21(DE3), Ni-NTA purified, about 25 kDa expected
T5 sequence (A0A8S4F7H5 1-243 limits assumed): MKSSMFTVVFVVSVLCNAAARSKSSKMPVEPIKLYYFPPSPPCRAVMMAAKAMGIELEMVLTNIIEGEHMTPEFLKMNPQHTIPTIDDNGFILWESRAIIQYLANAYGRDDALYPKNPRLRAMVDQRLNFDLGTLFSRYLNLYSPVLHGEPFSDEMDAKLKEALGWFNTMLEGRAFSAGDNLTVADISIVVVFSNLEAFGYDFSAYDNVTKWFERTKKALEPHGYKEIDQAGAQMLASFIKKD

[6] = system: T6, GSTd5; assay: CDNB-GSH conjugation, absorbance at […] nm; format: biochemical, Plutella xylostella; settings: 1 mM GSH, 100 mM phosphate buffer, CDNB 0.05-1.6 mM
T6 construct: recombinant, pET-30a(+), E. coli BL21(DE3), Ni-NTA purified, about 25 kDa expected

[7] = target: T7, GSTs2 (Plutella xylostella, UniProt Q6F436); assay: CDNB-GSH conjugation, absorbance at […] nm; format: biochemical; settings: 1 mM GSH, 100 mM phosphate buffer, CDNB 0.05-1.6 mM
T7 construct: recombinant, pET-30a(+), E. coli BL21(DE3), Ni-NTA purified, about 25 kDa expected
T7 sequence (Q6F436 1-204): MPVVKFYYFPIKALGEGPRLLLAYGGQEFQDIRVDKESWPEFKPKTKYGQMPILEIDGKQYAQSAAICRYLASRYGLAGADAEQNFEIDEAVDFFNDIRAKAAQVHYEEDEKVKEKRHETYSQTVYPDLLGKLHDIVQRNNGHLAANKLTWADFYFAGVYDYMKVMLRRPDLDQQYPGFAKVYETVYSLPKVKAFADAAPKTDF

[8] = target: T8, GSTd4 (Plutella xylostella, UniProt X5CCB0); assay: CDNB-GSH conjugation, absorbance at […] nm; format: biochemical; settings: 1 mM GSH, 100 mM phosphate buffer, CDNB 0.05-1.6 mM
T8 construct: recombinant, pET-30a(+), E. coli BL21(DE3), Ni-NTA purified, about 25 kDa expected
T8 sequence (X5CCB0 1-219): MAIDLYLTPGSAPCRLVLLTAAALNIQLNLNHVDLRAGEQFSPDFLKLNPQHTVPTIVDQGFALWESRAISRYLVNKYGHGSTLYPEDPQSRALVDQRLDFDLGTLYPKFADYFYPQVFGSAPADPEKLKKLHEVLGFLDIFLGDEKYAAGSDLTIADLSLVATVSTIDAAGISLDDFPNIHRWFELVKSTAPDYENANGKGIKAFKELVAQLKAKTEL

[9] = target: T9, GSTe4 (Plutella xylostella, UniProt X5D048); assay: CDNB-GSH conjugation, absorbance at […] nm; format: biochemical; settings: 1 mM GSH, 100 mM phosphate buffer, CDNB 0.05-1.6 mM
T9 construct: recombinant, pET-30a(+), E. coli BL21(DE3), Ni-NTA purified, about 25 kDa expected
T9 sequence (X5D048 1-220): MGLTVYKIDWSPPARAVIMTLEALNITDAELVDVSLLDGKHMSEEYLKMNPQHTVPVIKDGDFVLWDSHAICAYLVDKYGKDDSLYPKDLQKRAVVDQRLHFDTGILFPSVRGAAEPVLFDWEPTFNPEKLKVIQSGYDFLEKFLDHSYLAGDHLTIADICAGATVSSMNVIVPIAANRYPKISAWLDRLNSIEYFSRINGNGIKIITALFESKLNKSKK

[10] = target: T5, GSTd1; assay: inhibition of CDNB-GSH conjugation, absorbance at […] nm; format: biochemical; settings: CDNB and GSH substrates, PBS, 10 min preincubation at 25 °C; competitive (authors' inference)
[11] = target: T3, GSTd2; assay: as above; format: biochemical; settings: CDNB and GSH substrates, PBS, 10 min preincubation at 25 °C; competitive (authors' inference)
[12] = target: T7, GSTs2; assay: as above; format: biochemical; settings: CDNB and GSH substrates, PBS, 10 min preincubation at 25 °C; competitive (authors' inference)
[13] = target: T1, GSTs1; assay: as above; format: biochemical; settings: CDNB and GSH substrates, PBS, 10 min preincubation at 25 °C; competitive (authors' inference)

Row | Compound | Km [1] [µM] | Km [2] [µM] | Km [3] [µM] | Km [4] [µM] | Km [5] [µM] | Km [6] [µM] | Km [7] [µM] | Km [8] [µM] | Km [9] [µM] | relative activity at 1 mM [10] | relative activity at 1 mM [11] | relative activity at 1 mM [12] | relative activity at 1 mM [13]
1 | O=[N+]([O-])c1ccc(Cl)c([N+](=O)[O-])c1 [1-chloro-2,4-dinitrobenzene] | 684 | 1010 | 682 | 705 | 691 | 546 | 469 | 1120 | 413 | – | – | – | –
2 | CC12C(=O)OC(=O)C1C1CCC2O1 [(S)-(−)-palasonin] | – | – | – | – | – | – | – | – | – | 0.35 fraction of control | 0.55 fraction of control | 0.51 fraction of control | 0.26 fraction of control
